Values joined by “and” are separate entries in the source; they are usually repeats but may differ in a detail not shown here. Equal entries are not always repeated. “Also recorded” adds a separate entry of the source.
Legend:
[1] = test system: B16F10 murine melanoma cells; assay: Cytotoxicity assay (resazurin), B16F10; format: cell-based; details: for IC50: Mus musculus, B16-F10, 48 h, resazurin
Procedure: (§1) 3T3 murine fibroblasts (ATCC # CRL-1658), B16F10 murine melanoma cells (ATCC # CRL-6475) and RAW 264.7 murine macrophages (ATCC # TIB-71) were cultured in Dulbecco’s modified eagle’s high-glucose medium (Sigma Aldrich, Darmstadt, Germany) supplemented with 10% fetal bovine serum (FBS), 1% streptomycin–penicillin (Gibco, Darmstadt, Germany) and 1% L-glutamine (Gibco, Germany). AML12 murine hepatocytes (ATCC # CRL-2254) were cultivated in Dulbecco’s modified eagle’s F-12 Ham media supplemented as described above plus 10 µg/mL insulin, 5.5 µg/mL transferrin, 5 ng/mL selenium (all from Thermo Fisher Scientific, Braunschweig, Germany) and 40 ng/mL dexamethasone (Sigma Aldrich). All cells were maintained in a humidified incubator at 37 °C under 5% CO2. Cells were passaged when they reached semi-confluency. For detachment, cells were thoroughly rinsed with Dulbecco’s phosphate-buffered saline (PBS) without calcium and magnesium (Sigma Aldrich) and enzymatically treated using TrypLE™ Express (1×) (Gibco, Germany). FBS-containing medium was added to stop enzymatic activity.
(§2) A total of 1000 cells were seeded per well in 100 µL medium (for details, see above) using 96-well plates (Greiner Bio-On, Frickenhausen, Germany). After 24 h, curcumin, garcinol (both from Sigma Aldrich), MePip-SF5 and isogarcinol (synthesized as described previously) were added to the wells at concentrations ranging from 0.5 to 64 µM (6 wells per concentration step) and incubated at […] for 48 h. For the preparation of the compounds, drugs were dissolved in DMSO at a concentration of 40 mM for stock solutions and freshly diluted with PBS to a working stock of 4 mM on the day of the experiment.
(§3) After the incubation, resazurin (Sigma Aldrich) was dissolved in fully supplemented media and added to a final concentration of 25 µg/mL per well. After incubation for 3 h, the absorbance of resorufin (7-hydroxy-3H-phenoxazin-3-one), the enzymatic product of resazurin, in the wells was measured on an Infinite M200Pro spectrofluorometer (TECAN, Männedorf, Switzerland) at an excitation of 570 nm. Based on the determined dose–response curves, IC50 concentrations were calculated by Prism 10 (GraphPad Software Version 10.1.0, La Jolla, CA, USA) using nonlinear regression analysis after conversion of concentrations to logarithmic scale.

[2] = test system: 3T3 murine fibroblasts; assay: Cytotoxicity assay (resazurin), 3T3; format: cell-based; details: 3T3 fibroblasts; for IC50: Mus musculus, Fibroblast, 48 h, resazurin
Procedure: as §1, §2, §3

[3] = test system: AML12 murine hepatocytes; assay: Cytotoxicity assay (resazurin), AML12; format: cell-based; details: Mus musculus, 48 h
Procedure: as §1, §2, §3

[4] = test system: RAW 264.7 murine macrophages; assay: Cytotoxicity assay (resazurin), RAW 264.7; format: cell-based; details: Mus musculus, RAW264.7, 48 h
Procedure: as §1, §2, §3

[5] = test system: healthy C57BL/6 mice; assay: In vivo toxicity and dose finding; details: for maximum tolerated single dose without signs of acute toxicity: intraperitoneal, twice weekly, escalating doses, n = 2, weight loss and abnormal behavior
Procedure: Groups of 2 mice (C57BL/6) were challenged with increasing doses of MePip-SF5 or isogarcinol. Stock solutions of drugs (40 mM in DMSO, corresponding to 24 mg/mL for isogarcinol and 21 mg/mL for MePip-SF5) were freshly dissolved in PBS, yielding a total injection volume of 100 µL. Prepared drug solutions were intraperitoneally injected twice weekly (Monday and Friday) over 4 weeks. Drug doses were doubled each week, starting with 15 mg/kg body weight. Physical appearance and body weight were closely monitored. Toxic dose was defined as body weight loss of ≥10% in one week, abnormal behavior or when mice lost ≥5% of their body weight in two consecutive weeks.

[6] = test system: B16F10 pulmonary melanoma metastases; assay: In vivo antitumor therapy, pulmonary metastasis of B16F10 melanoma; parameters: species or system mice (C57BL/6); details: for pulmonary tumor load / antitumor effect: MePip-SF5 60 mg/kg, isogarcinol 15 mg/kg i.p. days 8, 11, 14, day 16, vs vehicle
Procedure: Eight-weeks-old female C57BL/6 mice (body weight ~20 g) were purchased from Charles River (Sulzfeld, Germany) and kept under 12 h light–dark cycles at 25 °C and 40–60% humidity with humane care. Mice had access to regular chow and water ad libitum. Pulmonary metastases were generated by tail vein injection. A total of 500,000 B16F10 cells were resuspended in sterile 100 µL PBS (cell viability > 90%) and injected into the tail vein of the mice while animals were immobilized in a mouse restrainer (G&P Kunststofftechnik, Kassel, Germany). At 8, 11 and 14 days after melanoma cell injection, groups of mice (n = 10) received an intraperitoneal injection of isogarcinol (15 mg/kg) or MePip-SF5 (60 mg/kg) of 200 µL, while non-treated control mice received equal volumes of PBS. At day 16, mice were sacrificed, and organs (lungs, liver, kidneys and spleen) and blood were sampled for further analysis. Tumor nodules of the left and right lobes of the lungs were macroscopically counted. Pictures of the lungs were taken with a Stemi 2000-C binocular (Carl Zeiss, Jena, Germany), and a mm scale was pictured to create a mm grid in ImageJ software (latest version 1.54f (National Institute of Health, Bethesda, MD, USA). In addition to surface lesion counts, tumors were categorized by their size into categories of <1 mm and <2 mm. Afterwards, both lobes were formalin fixed, paraffin embedded and sectioned (5 µm) to assess intrapulmonary tumor burden. Sections were stained with ready-to-use hematoxylin and eosin staining solution (Carl Roth, Karlsruhe, Germany) for 5 min at room temperature and washed in distilled water and 0.5% acetic acid. Per mouse, lungs were cut into 4–5 parts and then microtome thin-sectioned ([…]). Then, 4 lung sections were randomly selected and analyzed. Sections were tile-scanned with a Leica microscope (DMi8). Pictures were binarized and the percentage of healthy vs. tumor lung tissue measured by ImageJ software using an adjusted threshold setting. Data are expressed as means ± SD per mouse (n = 10 treated group; and n = 11 per control group).

[7] = test system: C57BL/6 mice; assay: Safety laboratory and biometric parameters in treated metastasis-bearing mice; format: in vivo; details: for tolerability at the applied doses: MePip-SF5 60 mg/kg, isogarcinol 15 mg/kg i.p. ×3; for safety laboratory parameters (LDH, creatinine, urea, ALT, AST, GLDH, γ-GT, Bilirubin, ALP): serum, day 16
Procedure: (§4) At 8, 11 and 14 days after melanoma cell injection, groups of mice (n = 10) received an intraperitoneal injection of isogarcinol (15 mg/kg) or MePip-SF5 (60 mg/kg) of 200 µL, while non-treated control mice received equal volumes of PBS. At day 16, mice were sacrificed, and organs (lungs, liver, kidneys and spleen) and blood were sampled for further analysis.

[8] = test system: metastatic lung tissue transcripts; assay: RT-qPCR of transcripts in lung tissue of treated mice; format: in vivo, mice (C57BL/6); details: MePip-SF5 60 mg/kg, vs controls
Procedure: (§5) Total RNA was extracted via phenol extraction from cells using RNA-Solv® reagent (VWR International GmbH, Hessen, Germany) as described in the manual of the manufacturer. RNA was purified with the Monarch® Total RNA Miniprep Kit (New England BioLabs GmbH, Frankfurt am Main, Germany) following the manual of the manufacturer. For RNA extraction from lung tissue, the accessory lobe of the right lung was mechanically homogenized in 1 mL RNA-Solv® reagent using the Tissue Lyser II (Qiagen, Venlo, The Netherlands). A 100 µL amount of the suspension was mixed with 900 µL RNA-Solv® reagent, and total RNA extraction was performed using the Monarch® Total RNA Miniprep Kit as described in the manual of the manufacturer.
(§6) RNA content of the extracted solution was measured optically using the Infinite® 200 PRO spectrofluorometer (TECAN, Switzerland), and 25 ng RNA per reaction was used in the following analysis.
(§7) Transcript levels of β-Actin were used to normalize data and to control for RNA integrity. Samples were amplified with the Luna® Universal One-Step RT-qPCR Kit (New England BioLabs GmbH, Frankfurt am Main) and analyzed using a Step One Plus sequence amplification system from LifeTechnologies (Darmstadt, Germany). For normalization, results were expressed as the ratio of the copy numbers of the target gene divided by the number of copies of the housekeeping gene (β-Actin) within individual PCR runs.
as §4

[9] = test system: M2-polarized bone-marrow-derived macrophages; assay: Phenotype modulation of M2-polarized BMDM (RT-qPCR); format: cell-based, mice (C57BL/6); details: M2-polarized primary macrophages; for Ccl3 expression: half of RAW IC50
Procedure: Bone marrow was extracted from 8-weeks-old C57BL/6 mice (Charles River, Erkrat, Germany) and matured into primary macrophages in the presence of macrophage colony-stimulating factor (M-CSF). Briefly, mice were sacrificed by cervical dislocation, and the femurs and tibias were isolated under sterile conditions and rinsed with cold PBS supplemented with 2% heat-inactivated FBS and 1% penicillin/streptomycin using a 21G needle and a 10 mL syringe (Braun, Kronberg, Germany). Cell suspensions were passed through a 70 µm cell strainer (Milteny, Bergisch Gladbach, Germany). The remaining red blood cells were lysed with red cell lysis buffer (eBioscience, San Diego, CA, USA) and the resulting bone marrow cells resuspended in fully supplemented Iscove’s modified Dulbecco’s medium (Gibco) plus 25 ng/mL M-CSF (from a 1 mg/mL M-CSF stock solution in PBS, M-CSF, ImmunoTools, Friesoythe, Germany). Five million cells were cultured on bacterial culture plates (Sigma-Aldrich, Germany) in a total volume of 10 mL. After 4 days, half of the medium was substituted by fresh medium to yield primary macrophages after an additional 4 days.
For M2-type polarization, BMDM medium was exchanged for fresh medium containing 20 ng/mL IL-4 and 20 ng/mL IL-13 (ImmunoTools, Germany), and cells were incubated for 24 h. […] IC50 concentrations were calculated as described above for the cytotoxicity assays.
as §5, §6, §7

[10] = test system: various solid tumor cell lines (including colon cancer and glioblastoma cells); details: exceeded the activities of previous curcuminoids; cited from earlier work
[11] = test system: gemcitabine-resistant pancreatic cancer patients; parameters: method as in PMID 20859741; details: cited from earlier work

SMILES	IC50 [1] [µM]	IC50 [2] [µM]	IC50 [3] [µM]	IC50 [4] [µM]	maximum tolerated single dose without signs of acute toxicity [5] [mg/kg]	pulmonary tumor load / antitumor effect [6]	tolerability at the applied doses [7]	safety laboratory parameters (LDH, creatinine, urea, ALT, AST, GLDH, γ-GT, Bilirubin, ALP) [7]	Ccl3 expression [9]	further results
CN1C/C(=C\c2ccc(S(F)(F)(F)(F)F)cc2)C(=O)/C(=C/c2ccc(S(F)(F)(F)(F)F)cc2)C1 [MePip-SF5, (E)-1-methyl-3,5-bis(4-pentafluorothiobenzylidene)-4-piperidone]	2.8	0.7	2.3	1.3	60	significantly (p < 0.05) lower; also recorded: robust antitumor effect	well tolerated	remained normal	upregulated	times more active than parent drug curcumin ([2]; ratio of IC50): 10 ×; could be dosed more highly than isogarcinol ([5]; ratio of tolerated doses): 8 ×; proportion of healthy lung tissue (morphometric, thin sections) ([6]; 60 mg/kg i.p. days 8, 11, 14, vs PBS-treated controls): significantly higher; numbers of macroscopic tumor nodules of size ≤ 1 mm in the lungs ([6]; i.p. days 8, 11, 14, sacrifice day 16, vs controls and isogarcinol-treated mice): significantly (p < 0.05) lower; Bax expression in lungs [8]: remained unchanged; Bcl2 expression in lungs [8]: remained unchanged; Hif1a expression in lungs [8]: did not affect; Il6 expression in lungs [8]: did not affect; Ki67 expression in lungs [8]: trend of reduced expression; Bub1 expression in lungs ([8]; 60 mg/kg): significantly (p < 0.05) reduced; also recorded: significantly downregulated; Ccl3 expression in lungs ([8]; 60 mg/kg): significantly (p < 0.05) reduced; Tnfa expression in lungs ([8]; 60 mg/kg): significantly (p < 0.05) reduced; Inos expression [9]: no effect; Ccl2 expression ([9]; effective dose of 0.6 µM): increased; antiproliferative activity [10]: high antiproliferative activity
COc1cc(/C=C/C(=O)CC(=O)/C=C/c2ccc(O)c(OC)c2)ccc1O [curcumin]	13.8	6.8	10.8	5.5						1-year survival rate ([11]; 95% confidence interval 4.4–41.4%): 19%; median survival ([11]; 95% confidence interval 109–223 days): 161 days
C=C(C)[C@@H](CC=C(C)C)C[C@@]12C[C@@H](CC=C(C)C)C(C)(C)[C@@](CC=C(C)C)(C(=O)C(C(=O)c3ccc(O)c(O)c3)=C1O)C2=O [garcinol, reference compound]	3.1	8.7	10.1	3.8					not	
CC(C)=CC[C@H]1C[C@@]23C[C@@H](CC=C(C)C)C(C)(C)[C@@](CC=C(C)C)(C(=O)C(C(=O)c4ccc(O)c(O)c4)=C2OC1(C)C)C3=O [isogarcinol]	2.1	3.2	4.3	2.3	15	ineffective; also recorded: failed to show activity	well tolerated	remained normal	increased	stronger activity than original substance garcinol [1]: 40% and ~ 40%
